The subject of test [1] is IL-1β induced PGE2 production. Briefly: PGE2 production induced by IL-1β in chondrocyte cell culture. Particulars: Oryctolagus cuniculus, Chondrocyte, read-out: Effects on PGE2 production in rabbit Chondrocyte culture, IC50. Format: cell-based, rabbit. The text has this: (§1) Conversely, compounds of the invention are able to inhibit, at micromolar concentration, IL-1β induced PGE2 production in cellular systems. This inhibition effect on the production of the pro-inflammatory mediator PGE2, instead of to be ascribed to a direct COX-2 inhibition, as happens with Celecoxib and other COX-2 inhibitors, is in this case due to inhibition of cytokine induced COX-2 expression as proven in cellular systems.
(§2) Effectiveness in inhibition of PGE2 production induced by IL-1β in chondrocyte cell culture, as well as inhibition in IL-1β induced COX-2 expression in SW1353 human chondrosarcoma cell line, is summarized in Table 2, for representative compounds of the invention.

For the next test, the system named is COX-2 expression. Briefly: IL-1β induced COX-2 expression in SW1353 human chondrosarcoma cell line. Format: cell-based. Particulars: Homo sapiens, SW1353, read-out: Inhibition of COX-2 expression in SW1353 human chondrosarcoma cell line, IC50.
Description: as §1, §2

For test [2], the system named is acetic acid-induced abdominal writhes. Briefly: Acetic acid-induced writhing test. The class given is in vivo, mice. Particulars: for MPE (%): 30 min. before acetic acid. The procedure:
With the aim of assessing whether the compounds of the invention are able to inhibit responses to peritoneal irritation-induced visceral pain, the acetic acid-induced writhing assay was used in mice to determine the degree of anti-nociception.
The writhing test is a model of inflammatory pain that has long been used as a screening tool for evaluation of analgesic and anti-inflammatory agents (HDJ Collier, B. J. Pharmacol Chemother., 1968, 32, 295-310). The test was performed inducing nociception by an i.p. injection of acetic acid 1%, 0.1 mL/10 g of body weight. Mice were pre-treated (subcutaneously, s.c., three different doses: 3, 10, 30 mg/Kg) with the tested compounds 30 min. before acetic acid injection, while control animals received a similar volume of saline solution. A group of mice was treated with Paracetamol (200 mg/Kg, s.c.) as reference drug. The number of abdominal writhes (full extension of both hind paws) was cumulatively counted every 5 minutes over a period of 20 min. immediately after the acetic acid injection. The anti-nociceptive activity was expressed as inhibition of abdominal writhes as maximum percent effect (MPE), which represents the difference (%) in pain threshold between the animals treated with the drug and the ones that received only the vehicle.

The test system of test [3] is formalin-induced paw licking. The test can be described thus: Formalin (licking) test. The class given is in vivo, mice. Particulars: Mus musculus, ip, 1 hour before formalin. The method, then:
The formalin test is increasingly used as a model of injury-produced pain (FV. Abbott, Pain, 1995, 60, 91-102). The procedure used for the evaluation of the compounds of the invention was similar to that reported by literature (S. Hunskaar, Pain, 1987, 30, 103-104), and consisted of the injection of 20 μl of 1% solution of formalin dissolved in distilled water, in the plantar surface of the right hind paw of the mice. Immediately, the animals were placed individually in an observation chamber. The amount of time that the animal spent licking the injected paw, considered indicative of pain, was recorded during 30 min. following formalin injection. The initial nociceptive scores normally peaked 5 min after formalin injection (early phase) and 15-30 min. after formalin injection (late phase), representing both the neurogenic and inflammatory pain responses respectively.
Animals were treated i.p. with an aqueous solution of the tested compound (doses: 3, 10, 30 mg/Kg), 1 hour before the formalin injection. Control animals received only the vehicle.
In Table 8, the analgesic effect elicited in this test by a representative compound of Formula (I), is expressed as ED50 both for the early and late phase, and compared with the performance of the standard reference, paracetamol.

The test system of test [4] is Zymosan induced paw volume increase. The test can be described thus: Zymosan-induced paw oedema. Format: in vivo, rat. Particulars: oral. The procedure:
The interplantar injection of Zymosan-induced mechanical hyperalgesia was used as a model of inflammatory pain (Meller, Neuropharmacology, 1994, 33, 1471-1478). In this model, typically a male Sprague-Dawley or Wistar rat (200-250 g) receives an interplantar injection of 3 mg/100 μl zymosan into one hind paw. A marked inflammation occurs in this hind paw. Drugs are administered orally for evaluation of efficacy, 30 min. before the inflammatory insult. The hyperalgesia induced by zymosan administration was evaluated using the Randall-Selitto method (Arch. Int. Pharmacodyn., 1957, 111, 409). The quantitation of the analgesic effect is achieved by an analgesimeter, which consist in applying to the inflamed paw an increasing weight (from 130-140 g up to 500 g). The difference in the mechanical pain threshold between the basal value (generally 230-250 g) and the one tolerated by the animals treated with the drug, determined 4 hours after the inflammatory challenge, is defined as mechanical hyperalgesia.
Mechanical hyperalgesia is expressed for the compounds of the invention as ED50, which is the dose of the administered compound able to increase the pain threshold by 50% in comparison with the group of control animals. The corresponding ED100, representing the dose able of reducing of 100% the pain threshold, can be calculated for those cases where there is a linear dose-response relationship. In vivo anti-inflammatory effect exerted by the compound of the invention can be assessed in the same Zymosan induced inflammation test described above, by measuring the volume of the oedema induced by the inflammatory agent. The oedema was evaluated as the increase in the volume of the Zymosan injected paw within a time of 0-2 hrs. The measurements of the variation of the oedema volume of the paw were recorded using hydroplethysmometer, which consists of two plastic cuvettes containing a surfactant liquid, the larger one being used for immersion of the paw, connected to the smaller one which contains a trans-ducer capable of recording small displacements of the volume used for the measure. The paw is immersed in the cuvettes up to the tibiotarsal joint. The volume of the liquid displaced is proportional to the extent of the inflammation. The efficacy of the compounds of the invention in preventing oedema formation is expressed as ED30, and is measured 2 hours after the inflammatory challenge, and represents the dose able of reducing of 30%, the Zymosan induced paw volume increase in comparison to control animals (animals treated with Zymosan but treated with only distilled water instead of the testing compound). The corresponding ED50, representing the dose able of reducing of 50% the zymosan induced paw volume increase, can be calculated for those cases where there is a linear dose-response relationship.
In both the experiments, for each test compound, at least three doses were used, with 10 animals per group. Compounds of the invention were tested at 10, 20 and 40 mg/Kg.

We go through 1 molecule from patent publication US7968558B2, “Amidine derivatives of 2-heteroaryl-quinazolines and quinolines; potent analgesics and anti-inflammatory agents” (Rottapharm S.p.A., priority 2006, dated 2011).

Where two headings read alike, the source gives them in different places.

In general, IC50 refers to the point on the concentration scale where inhibition reaches its midpoint. Regarding `CC(=N)Nc1ccc2nc(-c3ccc4c(c3)OCO4)ncc2c1` [Example 1, N-[2-(1,3-benzodioxol-5-yl)quinazolin-6-yl]acetamidine], the IC50 is 4.1 µM in test [1] and 4.6 µM in the test on COX-2 expression. The figures for the “MPE (%)” value in test [2] (3 mg/Kg s.c.), in test [2] (10 mg/Kg s.c.) and in test [2] (30 mg/Kg s.c.) were 30%, 33% and 89%, respectively. The ED50 in test [2] (Mus musculus, sc, writhing test, read-out: ED50) was 9.8 mg/kg; in test [3] (early phase, read-out: Analgesic effect ED50 (mg/Kg) Early phase) it was 19 mg/kg; in test [3] (late phase, read-out: Analgesic effect ED50 (mg/Kg) Late phase) it was 13 mg/kg; in test [4] (Rattus norvegicus, calculated from linear dose-response, read-out: Oedema Reduction ED50), 23.1 mg/kg. In addition, the “Oedema Reduction ED30” value in test [4] (2 hours after challenge) is reported as 12.2 mg/kg.
